Measured values reported in patent US10448639B2, “Fungicidal pyrazoles” (FMC CORPORATION, priority 2009, dated 2019).
Marks after values point to notes of the source that are not given here.

Experiments:
Septoria nodorum = experiment: Test F: Septoria glume blotch, preventive spray on wheat seedlings, visual disease rating; settings: for Test F rating (% disease control): 100 = 100% disease control
Source text: (§1) General protocol for preparing test suspensions for Tests A-J: the test compounds were first dissolved in acetone in an amount equal to 3% of the final volume and then suspended at the desired concentration (in ppm) in acetone and purified water (50/50 mix by volume) containing 250 ppm of the surfactant Trem® 014 (polyhydric alcohol esters). The resulting test suspensions were then used in Tests A-J. Spraying a 200 ppm test suspension to the point of run-off on the test plants was the equivalent of a rate of 500 g/ha. Unless otherwise indicated, the rating values indicate a 200 ppm test suspension was used. (An asterisk “*” next to the rating value indicates a 40 ppm test suspension was used.)
The test suspension was sprayed to the point of run-off on wheat seedlings. The following day the seedlings were inoculated with a spore suspension of Septoria nodorum (the causal agent of Septoria glume blotch) and incubated in a saturated atmosphere at 24° C. for 48 h, and then moved to a growth chamber at 20° C. for 6 days, after which time visual disease ratings were made.

[1] = tested on: Puccinia recondita f. sp. tritici; experiment: Test I: wheat leaf rust, preventive spray on wheat seedlings, visual disease rating; settings: for Test I rating (% disease control): 100 = 100% disease control
[2] = tested on: Puccinia recondita f. sp. tritici; experiment: Test H: wheat leaf rust, curative spray on inoculated wheat seedlings, visual disease rating; settings: for Test H rating (% disease control): 100 = 100% disease control
Alternaria solani = experiment: Test C: tomato early blight, preventive spray on tomato seedlings, visual disease rating; settings: for Test C rating (% disease control): 100 = 100% disease control
Source text: as §1
The test suspension was sprayed to the point of run-off on tomato seedlings. The following day the seedlings were inoculated with a spore suspension of Alternaria solani (the causal agent of tomato early blight) and incubated in a saturated atmosphere at 27° C. for 48 h, and then moved to a growth chamber at 20° C. for 5 days, after which time visual disease ratings were made.

Septoria tritici = experiment: Test G: wheat leaf blotch, preventive spray on wheat seedlings, visual disease rating; settings: for Test G rating (% disease control): 100 = 100% disease control
Source text: as §1
The test suspension was sprayed to the point of run-off on wheat seedlings. The following day the seedlings were inoculated with a spore suspension of Septoria tritici (the causal agent of wheat leaf blotch) and incubated in saturated atmosphere at 24° C. for 48 h. and then the seedlings were moved to a growth chamber at 20° C. for 19 additional days, after which time visual disease ratings were made.

[3] = tested on: Erysiphe graminis f sp. tritici; experiment: Test J: wheat powdery mildew, preventive spray on wheat seedlings, visual disease rating; settings: for Test J rating (% disease control): 100 = 100% disease control
Botrytis cinerea = experiment: Test B: tomato Botrytis, preventive spray on tomato seedlings, visual disease rating; settings: for Test B rating (% disease control): 100 = 100% disease control
Source text: as §1
The test suspension was sprayed to the point of run-off on tomato seedlings. The following day the seedlings were inoculated with a spore suspension of Botrytis cinerea (the causal agent of tomato Botrytis) and incubated in saturated atmosphere at 20° C. for 48 h, and then moved to a growth chamber at 24° C. for 3 additional days, after which time visual disease ratings were made.

[4] = Septoria glume blotch on wheat, preventive spray, 0 = no control
[5] = wheat leaf rust, preventive spray, 0 = no control
[6] = wheat leaf rust, curative spray, 0 = no control
[7] = tomato early blight, preventive spray, 0 = no control
[8] = wheat leaf blotch, preventive spray, 0 = no control
[9] = wheat powdery mildew, preventive spray, 0 = no control
[10] = tomato Botrytis, preventive spray, 0 = no control
[11] = Septoria glume blotch, 0 = no control relative to controls
[12] = wheat leaf rust, preventive, 0 = no control relative to controls
[13] = wheat leaf rust, curative, 0 = no control relative to controls
[14] = tomato early blight, 0 = no control relative to controls
[15] = wheat leaf blotch, 0 = no control relative to controls
[16] = wheat powdery mildew, 0 = no control relative to controls
[17] = tomato Botrytis, 0 = no control relative to controls

SMILES | Test F rating (% disease control) (Septoria nodorum; [4]) [%] | Test I rating (% disease control) [1, 5] [%] | Test H rating (% disease control) [2, 6] [%] | Test C rating (% disease control) (Alternaria solani; [7]) [%] | Test G rating (% disease control) (Septoria tritici; [8]) [%] | Test J rating (% disease control) [3, 9] [%] | Test B rating (% disease control) (Botrytis cinerea; [10]) [%] | also measured
Cc1nn(C)c(Oc2c(F)cc(C#N)cc2F)c1-c1cccc(F)c1 [compound 43] | 0 | 82 | 66 | 0 | 97 | 99 | 76 | 
Cc1nn(C)c(Nc2ccc(Cl)cc2)c1-c1ccc(F)cc1Cl [compound 19] | 0 | 92 | 0 | 85 | 96 | 98 | 100 | 
Cc1nn(C)c(Nc2c(F)cc(C#N)cc2F)c1-c1ccc(F)cc1Cl [Compound 91, 4-[[4-(2-chloro-4-fluorophenyl)-1,3-dimethyl-1H-pyrazol-5-yl]amino]-3,5-difluorobenzonitrile] |  |  |  |  |  |  |  | pest or weed control at 200 µg/mL (Septoria nodorum; Parastagonospora nodorum, in Triticum aestivum, 192 h, read-out: Test F rating (% disease control)): 95%; pest or weed control at 200 µg/mL ([1]; 192 h, read-out: Test I rating (% disease control)): 100%; pest or weed control at 200 µg/mL ([2]; 144 h, read-out: Test H rating (% disease control)): 0%; pest or weed control at 200 µg/mL (Alternaria solani; Alternaria solani, in Solanum lycopersicum, 168 h, read-out: Test C rating (% disease control)): 99%; pest or weed control at 200 µg/mL (Septoria tritici; Zymoseptoria tritici, in Triticum aestivum, 504 h, read-out: Test G rating (% disease control)): 99%; pest or weed control at 200 µg/mL ([3]; Blumeria graminis, in Triticum aestivum, 192 h, read-out: Test J rating (% disease control)): 100%; pest or weed control at 200 µg/mL (Botrytis cinerea; Botrytis cinerea, in Solanum lycopersicum, 120 h, read-out: Test B rating (% disease control)): 100%
Cc1nn(C)c(Nc2c(F)cccc2F)c1-c1ccc(F)cc1F [compound 256] |  |  |  |  |  |  |  | Test F rating (% disease control) (Septoria nodorum; [11]): 96%; Test I rating (% disease control) [1, 12]: 99%; Test H rating (% disease control) [2, 13]: 0%; Test C rating (% disease control) (Alternaria solani; [14]): 99%; Test G rating (% disease control) (Septoria tritici; [15]): 100%; Test J rating (% disease control) [3, 16]: 100%; Test B rating (% disease control) (Botrytis cinerea; [17]): 99%
Cc1nn(C)c(Nc2cc(F)c(F)cc2F)c1-c1c(F)cc(C#N)cc1F [compound 138] | 84 | 100 | 38 | 96 | 99 | 98 | 99 | 
COc1cc(F)c(-c2c(C)nn(C)c2Oc2ccc(C)c(C)c2)c(F)c1 [compound 210] |  |  |  |  |  |  |  | Test F rating (% disease control) (Septoria nodorum; [11]): 0%; Test I rating (% disease control) [1, 12]: 94%; Test H rating (% disease control) [2, 13]: 99%; Test C rating (% disease control) (Alternaria solani; [14]): 0%; Test G rating (% disease control) (Septoria tritici; [15]): 100%; Test J rating (% disease control) [3, 16]: 99%; Test B rating (% disease control) (Botrytis cinerea; [17]): 0%
Cc1nn(C)c(Nc2c(F)cc(F)cc2F)c1-c1ccccc1C(F)(F)F [compound 239] |  |  |  |  |  |  |  | Test F rating (% disease control) (Septoria nodorum; [11]): 0%; Test I rating (% disease control) [1, 12]: 68%; Test H rating (% disease control) [2, 13]: 0%; Test C rating (% disease control) (Alternaria solani; [14]): 95%; Test G rating (% disease control) (Septoria tritici; [15]): 67%; Test J rating (% disease control) [3, 16]: 100%; Test B rating (% disease control) (Botrytis cinerea; [17]): 99%
COc1cc(F)c(-c2c(C)nn(C)c2Nc2ccc(OC)nc2)c(F)c1 [compound 95] | 0 | 0 | 0 | 16 | 97 | 0 | 99 | 
Cc1nn(C)c(Oc2ccc([N+](=O)[O-])c(F)c2)c1-c1c(F)cc(F)cc1F [compound 131] | 0 | 86 | 0 | 0 | 98 | 94 | 99 | 
Cc1nn(C)c(Oc2c(F)cc([N+](=O)[O-])cc2F)c1-c1ccc(F)cc1Cl [compound 121] | 82 | 100 | 83 | 86 | 99 | 97 | 100 | 
COc1cc(F)c(-c2c(C)nn(C)c2Oc2ccc(Cl)cn2)c(F)c1 [compound 47] |  |  |  |  |  |  |  | Test F rating (% disease control), value marked * (Septoria nodorum; Septoria glume blotch, preventive spray, rating marked with asterisk (different test condition, key not given)): 0* %; Test I rating (% disease control), value marked * ([1]; wheat leaf rust, preventive spray, rating marked with asterisk (different test condition, key not given)): 96* %; Test H rating (% disease control), value marked * ([2]; wheat leaf rust, curative spray, rating marked with asterisk (different test condition, key not given)): 37* %; Test C rating (% disease control), value marked * (Alternaria solani; tomato early blight, preventive spray, rating marked with asterisk (different test condition, key not given)): 87* %; Test G rating (% disease control), value marked * (Septoria tritici; wheat leaf blotch, preventive spray, rating marked with asterisk (different test condition, key not given)): 99* %; Test J rating (% disease control), value marked * ([3]; wheat powdery mildew, preventive spray, rating marked with asterisk (different test condition, key not given)): 99* %; Test B rating (% disease control), value marked * (Botrytis cinerea; tomato Botrytis, preventive spray, rating marked with asterisk (different test condition, key not given)): 100* %
Cc1nn(C)c(Nc2c(F)cc(F)cc2Cl)c1-c1c(F)cccc1Cl [compound 298] |  |  |  |  |  |  |  | Test F rating (% disease control) (Septoria nodorum; [11]): 87%; Test I rating (% disease control) [1, 12]: 100%; Test H rating (% disease control) [2, 13]: 0%; Test C rating (% disease control) (Alternaria solani; [14]): 93%; Test G rating (% disease control) (Septoria tritici; [15]): 100%; Test J rating (% disease control) [3, 16]: 100%; Test B rating (% disease control) (Botrytis cinerea; [17]): 100%
COc1cc(OC)c(Nc2c(-c3c(F)cc(F)cc3F)c(C)nn2C)cc1Cl [compound 100] | 0 | 41 | 0 | 0 | 48 | 0 | 38 | 
Cc1nn(C)c(Nc2ccc(F)cc2F)c1-c1c(F)cccc1C(F)(F)F [compound 255] |  |  |  |  |  |  |  | Test F rating (% disease control) (Septoria nodorum; [11]): 0%; Test I rating (% disease control) [1, 12]: 0%; Test H rating (% disease control) [2, 13]: 0%; Test C rating (% disease control) (Alternaria solani; [14]): 0%; Test G rating (% disease control) (Septoria tritici; [15]): 0%; Test J rating (% disease control) [3, 16]: 39%; Test B rating (% disease control) (Botrytis cinerea; [17]): 100%
Cc1nn(C)c(Nc2c(F)cc(F)cc2F)c1-c1ccc(Cl)cc1 [compound 28] | 0 | 91 | 7 | 0 | 96 | 0 | 99 | 
Cc1nn(C)c(Nc2c(F)cccc2F)c1-c1ccc(Cl)cc1 [compound 33] | 0 | 18 | 0 | 0 | 95 | 0 | 0 | 
COc1cc(F)c(Nc2c(-c3c(F)cc(C#N)cc3F)c(C)nn2C)c(F)c1 [compound 134] | 0 | 41 | 0 | 0 | 99 | 0 | 99 | 
